Values after ≈ are worked out from the molar mass of the structure shown.
Columns and labels:
[1] = Kinetic solubility by UV spectrometry in 10 mM PBS; format: physicochemical; settings: 10 mM phosphate buffered saline, aqueous buffer, kinetic from dmso stock
Experimental: Among the most important physicochemical parameters in drug-discovery, solubility and chemical stability in aqueous media are the determinants for non-toxic and brain-permeable drug-like compounds with good bioavailability. So, compounds with good aqueous solubility are the best candidates for drug-discovery progression. […] The assays were performed at room temperature, in 10 mM Phosphate Buffered Saline (PBS) from compound stocks in DMSO at 20 mM concentration.
A modified protocol was used from that described by Hoelke et al. for the determination of the kinetic solubility from DMSO compound solutions. A compound calibration curve (compound concentration vs. UV absorption) was prepared on a 48 well plate for each compound with concentrations in the range of 10 µM to […]. Each compound dilution was carried out by pipetting defined volumes of a 20 mM stock compound solution in DMSO into the wells and adding PBS 10 mM to reach a final volume of 500 µL/well. The final amount of DMSO per well was 2%. For the lower compound concentrations, an additional volume of DMSO was added into each well to reach the 2% of DMSO. Then, 200 µL of each dilution was transferred to a new 96 well plate for the measurement of the UV-spectra. One well in each row was left without compound as a blank and its UV absorbance was used as an offset correction. The experiments were carried out by duplicate.
In parallel compound saturation solutions were obtained and filtered from 20 mM compound stock in DMSO. So, 10 µL of 20 mM stock solution were dispensed to 190 µL of PBS 10 mM. The solutions were mixed, shaken in a microplate shaker for two hours, and then 160 µL of each solution were filtered and transferred to a new well plate for UV absorption measure. The compound stability in PBS 10 mM was determined at 24, 48 and 72 h with solutions prepared as those for the compound calibration curve.
Measurement of the UV-spectra was performed using a Varioskan microplate reader and spectra were taken in the range of 270–600 nm. Spectral bandwidth was set to 5 nm and the data pint interval was 10 nm. […]

[2] = Cytotoxicity in SH-SY5Y cells (MTT); format: cell-based; settings: human, SH-SY5Y neuronal cells, concentration reducing cell viability to 50% of control
Experimental: So, to study the neuroprotectant potential of β-diketones in the SH-SY5Y cell line, we firstly need to determine their cytotoxicity in the same cellular model. […] In addition to that, within each series, the introduction of a second fluorine atom in the left-hand side phenyl ring decreases also the cytotoxicity.
SH-SY5Y cells were seeded into 96-well plates at a density of 5 × 10^3 cells/well and grown in the incubator for 24 h. All compounds tested were dissolved and eventually further diluted in dimethylsulfoxide (DMSO). After overnight incubation, the cells were treated with different test concentrations (5, 10, 20, 50, 100, 150, 200 µM) in a final volume of 200 µL with four replicates each. […] Cell proliferation or viability was measured using the 3-(4,5-dimethylthiazol-2-yl)-2,5-diphenyl tetrazolium bromide (MTT) assay. After 24 h, 20 µL of MTT (5 mg/mL) was added to each well and the plate was incubated at 37 °C in the dark for 2 h. Supernatants were removed and the formazan crystals were solubilized in DMSO (200 µL/well), under 10 min shaking at room temperature. The reduction of MTT was quantified by absorbance at 570 nm Varioskan microplate reader (Thermo Fisher Scientific, Vantaa, Finland). Effects of the test compounds on cell viability were calculated using cells treated with vehicle as control. The data were subjected to linear regression analysis and the regression lines were plotted for the best fit. The IC50 (inhibition of cell viability) concentrations were calculated using the respective dose-response curves.

[3] = test system: SH-SY5Y cells; test: SH-SY5Y neuroprotection assay against H2O2 (MTT); format: cell-based, human; settings: compound 5-50 µM for 24 h, then 200 µM H2O2 for 24 h
Experimental: For neuroprotection experiments, SH-SY5Y cells were treated with test compound at different concentrations (5, 10, 20, 30, 40, and 50 µM) for 24 h. After the incubation period, cells were exposed to H2O2 200 µM for 24 h. At the end of the treatment, cell viability was measure with MTT.
Compound neuroprotection under H2O2-induced oxidative stress was assessed by MTT assay. Briefly, SH-SY5Y were seeded into 96-well plates at a density of 3 × 10^3 cells/well and grown in the incubator for 24 h. Cells were pretreated for 24 h with different compound concentrations (5, 10, 20, 30, 40, 50 µM). After the treatment period, cells were exposed to 200 µM H2O2 for 24 h. Cell viability was measured with MTT following the same procedure described above. Cell viability was expressed as the percentage of the control value (cells without treatment with H2O2).

[4] = Iron chelation capacity (Fe^+2-ferrozine complex); format: biochemical; settings: aqueous media; for Fe^2+ binding capacity: 50 µM compound; for Fe^2+ chelating capacity: 200 µM compound
Experimental: To decrease the level of free Fe^2+ that can reduce H2O2 to the ^•OH radical and produce other ROS, it is worth to evaluate the iron chelation capacity of new potential AOX compounds as potential new therapeutic agents against neurodegenerative diseases. […] In this assay ferrozine form complexes with Fe^+2 in a quantitative manner, and in the presence of chelating compounds this complex is disrupted.
The iron chelation capacity was determined according to the method of Dinis et al., using ferrous chloride instead of ferrous sulfate. In this method, ferrozine can form complexes with a ferrous ion in a quantitative way yielding a red color with maximum absorbance at 562 nm. In the presence of other iron chelators, a decoloration is observed due to the competition with ferrozine for the metal. The assay was carried out in a 96 well plate. Serial dilutions of test compound (0, 5, 10, 25, 50, 100, 150, 200 µM) were dispensed (180 µL) into each well and then 10 µL of FeCl2 1 mM were added (final FeCl2 concentration, […]). After shaking the plate for 1 min, 10 µL of Ferrozine 2 mM were added. The mixture was shaken thoroughly and left to stand for 20 min at room temperature. The absorbance was measured at 562 nm with a Varioskan microplate reader. […] The compound iron chelation activity was calculated as the percentage of inhibition of the Fe^+2-Ferrozine complex by the formula in Equation (3):%Inhibition = {(Ao − As)/Ao} × 100(3) where Ao is the absorbance of the control, and As is the absorbance in the presence of the test compound. EDTA was used as a positive control. All the experiments were performed three times by quadruplicate for each compound concentration.

Row | SMILES | solubility at 2 h [1] [µg/mL] | IC50 at 24 h [2] [µM] | Cell viability after H2O2 (neuroprotection) [3] | Fe^2+ binding capacity [4] | Fe^2+ chelating capacity [4]
1 | O=C(/C=C(O)/C=C/c1cc(F)c(O)cc1F)C(F)(F)F [Compound 6b, (3Z,5E)-6-(2,5-difluoro-4-hydroxyphenyl)-1,1,1-trifluoro-4-hydroxyhexa-3,5-dien-2-one] | 281 ± 9 (≈ 955 µM) | 187 ± 13.2 | significantly improved | 7–8% | 25–26%
2 | O=C(/C=C(O)/C=C/c1ccc(O)c(F)c1F)C(F)(F)F [Compound 7b, (3Z,5E)-6-(2,3-Difluoro-4-hydroxyphenyl)-1,1,1-trifluoro-4-hydroxyhexa-3,5-dien-2-one] | 298 ± 7 (≈ 1010 µM) | 200 ± 17.1 | significantly improved | 7–8% | 25–26%

Reference: publication PMC6222706, “Evaluation of the Antioxidant and Neuroprotectant Activities of New Asymmetrical 1,3-Diketones” (Molecules : A Journal of Synthetic Chemistry and Natural …, 2018)
